The values below come from patent US9321790B2, “Pyrimidinone derivatives as antimalarial agents” (SANOFI, priority 2012, dated 2016).

The subject of experiment [1] is Plasmodium falciparum (strain NF54). Put plainly: Antimalarial activity test: growth of Plasmodium falciparum in infected human erythrocytes, 3H-hypoxanthine incorporation. To be noted: strain NF54 sensitive to chloroquine, 72 h total incubation. In kind it is cell-based. Here is the method: The compounds according to the invention underwent pharmacological trials to determine their inhibitory effect on the growth of Plasmodium falciparum (strain NF54 sensitive to inhibition with chloroquine) in an in vitro test using infected human erythrocytes. The growth of the parasites is measured via the incorporation of tritiated hypoxanthine compared with the incorporation in the absence of drug. The tests are performed in 96-well microplates (Falcon™ 96-well microtiter plates, ref. No. 353072) in RPMI 1640 solutions (10.44 g/l) (without hypoxanthine) with HEPES (5.94 g/l), NaHCO3 (2.1 g/l), neomycin ([…])+AlbumaxR II (5 g/l) supplemented with human erythrocytes with a final hematocrit of 1.25% and a final parasitemia of 0.15%.
The stock solution of the compounds is prepared at 10 mg/mL in DMSO. For the test, fresh solutions at the desired concentrations are prepared in RPMI medium. For the test, 100 μl of compound are mixed with 100 μl of infected blood. For the determination of the IC50 values, the compounds are tested in twofold serial dilution.
The plates are incubated at 37° C. under a humid atmosphere with 93% N2, 4% CO2 and 3% O2. After 48 hours, 50 μl of ^3H-hypoxanthine (=0.5 μCi) in RPMI medium are added to each well and incubation is continued for a further 24 hours. Next, the plates are washed with distilled water and the cell lyzate is transferred onto fiberglass filters. The filters are dried and the radioactivity is determined by liquid scintillation. The results in cpm are converted into percentages of inhibition. The inhibitory activity is given by the concentration that inhibits 50% of the growth of the parasite relative to a control without compound.

Experiment [2] addresses human PI3Kα (Homo sapiens (Human), UniProt P42336). Put plainly: Human PI3Kα activity test (luciferin/luciferase ATP consumption, KinaseGlo). In kind it is biochemical. The following applies: read-out: IC50 Human PI3Kα. On the technique in general: In Kinase-Glo more light means more ATP remaining.
Experimental: The test uses a luciferin/luciferase system to measure the concentration of ATP and its consumption during the enzymatic reaction.
After 90 minutes, the reaction is quenched by adding 20 μl/well of KinaseGlo reagent (Promega V6713). After 10 minutes in the dark, the luminescence is read using a PHERAStar microplate reader (reading at 0.8 sec/well).
Setting [3] is: Plasmodium falciparum, Erythrocyte.
The mark [4] stands for this setting: PI3Kα (p110α/p85α), 50 μM PIP2, 2 μM ATP, 90 minutes.
[5] abbreviates: known compounds of WO 2011/001 112 and WO 2011/001 113.

Molecules are shown by their SMILES. Read-outs that look alike come from different tables or passages of the source.

Chain of human PI3Kα (P42336 whole entry): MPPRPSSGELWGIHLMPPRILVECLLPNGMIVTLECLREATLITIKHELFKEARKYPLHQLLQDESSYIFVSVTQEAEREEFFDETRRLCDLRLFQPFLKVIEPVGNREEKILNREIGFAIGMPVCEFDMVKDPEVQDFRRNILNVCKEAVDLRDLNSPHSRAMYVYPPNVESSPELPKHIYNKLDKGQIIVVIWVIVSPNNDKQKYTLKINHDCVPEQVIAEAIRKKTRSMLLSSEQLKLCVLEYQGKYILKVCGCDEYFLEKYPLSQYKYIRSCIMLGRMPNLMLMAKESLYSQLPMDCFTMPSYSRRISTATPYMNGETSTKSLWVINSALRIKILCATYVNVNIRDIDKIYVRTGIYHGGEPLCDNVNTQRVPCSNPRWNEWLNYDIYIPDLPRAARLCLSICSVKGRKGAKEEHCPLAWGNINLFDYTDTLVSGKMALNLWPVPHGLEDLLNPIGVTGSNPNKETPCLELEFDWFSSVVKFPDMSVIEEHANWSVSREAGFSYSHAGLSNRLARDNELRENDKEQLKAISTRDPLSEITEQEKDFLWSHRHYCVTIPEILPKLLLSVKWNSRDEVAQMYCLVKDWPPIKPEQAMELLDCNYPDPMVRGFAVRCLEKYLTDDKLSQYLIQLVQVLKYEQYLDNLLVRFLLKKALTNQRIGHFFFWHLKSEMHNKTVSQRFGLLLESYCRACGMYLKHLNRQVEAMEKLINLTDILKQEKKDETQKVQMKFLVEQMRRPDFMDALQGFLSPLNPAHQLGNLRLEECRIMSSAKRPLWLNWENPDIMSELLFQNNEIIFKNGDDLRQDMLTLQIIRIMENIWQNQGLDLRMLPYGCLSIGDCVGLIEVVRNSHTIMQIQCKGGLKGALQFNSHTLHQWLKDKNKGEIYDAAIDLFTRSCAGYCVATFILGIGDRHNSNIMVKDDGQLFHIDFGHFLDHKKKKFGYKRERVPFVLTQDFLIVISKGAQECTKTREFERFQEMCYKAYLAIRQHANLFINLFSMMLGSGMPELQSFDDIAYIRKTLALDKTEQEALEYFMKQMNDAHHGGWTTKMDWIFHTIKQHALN
Chain of human PI3Kα (P27986 whole entry partner): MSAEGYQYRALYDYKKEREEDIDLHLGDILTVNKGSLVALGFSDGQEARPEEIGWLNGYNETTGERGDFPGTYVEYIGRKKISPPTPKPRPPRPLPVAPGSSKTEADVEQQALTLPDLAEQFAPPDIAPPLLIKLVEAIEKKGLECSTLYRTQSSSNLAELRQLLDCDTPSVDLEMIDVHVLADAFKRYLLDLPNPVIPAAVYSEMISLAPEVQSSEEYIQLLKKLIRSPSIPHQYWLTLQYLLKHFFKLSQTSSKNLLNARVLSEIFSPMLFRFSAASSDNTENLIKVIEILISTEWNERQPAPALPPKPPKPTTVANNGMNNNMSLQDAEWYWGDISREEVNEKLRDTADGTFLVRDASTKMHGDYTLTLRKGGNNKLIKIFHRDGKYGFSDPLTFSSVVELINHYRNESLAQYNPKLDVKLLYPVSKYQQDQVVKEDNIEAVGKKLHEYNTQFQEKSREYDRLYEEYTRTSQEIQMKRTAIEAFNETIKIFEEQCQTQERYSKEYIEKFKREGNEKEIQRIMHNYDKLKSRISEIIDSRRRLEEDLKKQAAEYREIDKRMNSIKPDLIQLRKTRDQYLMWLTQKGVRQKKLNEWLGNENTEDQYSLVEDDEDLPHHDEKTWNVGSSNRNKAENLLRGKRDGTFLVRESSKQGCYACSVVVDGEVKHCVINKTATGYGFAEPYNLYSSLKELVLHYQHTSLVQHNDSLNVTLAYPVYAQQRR

By IC50 is commonly meant the concentration at which inhibition is half-maximal. Take `CC(C)(CN1c2nc(N3C[C@@H]4C[C@H]3CO4)cc(=O)n2CC[C@H]1C(F)(F)F)c1ccncc1` [Compound 1, (8S)-9-(2-methyl-2-pyrid-4-ylpropyl)-2-(1S,4S)-2-oxa-5-azabicyclo[2.2.1]hept-5-yl-8-trifluoromethyl-6,7,8,9-tetrahydropyrimido[1,2-a]pyrimidin-4-one]: the figures for the concentration for half-maximal inhibition (IC50) in experiment [1] (setting [3]) and in experiment [2] (setting [4]) were 20 nM and 3130 nM, respectively.
In the same order, the values of `O=C(CN1c2nc(N3C[C@@H]4C[C@H]3CO4)cc(=O)n2CC[C@H]1C(F)(F)F)c1ccncc1` [Compound 2, (8S)-2-(1S,4S)-2-oxa-5-azabicyclo[2.2.1]hept-5-yl-9-(2-oxo-2-pyrid-4-ylethyl)-8-trifluoromethyl-6,7,8,9-tetrahydropyrimido[1,2-a]pyrimidin-4-one] are 15 nM and ≥ 10000 nM.
In the case of `Nc1ccc(C(=O)CN2c3nc(N4CC5CC4CO5)cc(=O)n3CC[C@H]2C(F)(F)F)cn1` (stereo partly drawn) [Compound 3, (8S)-9-[2-(6-Aminopyrid-3-yl)-2-oxoethyl]-2-oxa-5-azabicyclo[2.2.1]hept-5-yl-8-trifluoromethyl-6,7,8,9-tetrahydropyrimido[1,2-a]pyrimidin-4-one], the IC50 in experiment [1] came to 13 nM; in experiment [2] (setting [4]) it was 7200 nM.
Regarding `Cc1ccc(C(=O)CN2c3nc(N4C[C@@H]5C[C@H]4CO5)cc(=O)n3CC[C@H]2C(F)(F)F)cn1` [Compound 4, (8S)-9-[2-(6-methylpyrid-3-yl)-2-oxoethyl]-2-(1S,4S)-2-oxa-5-azabicyclo[2.2.1]hept-5-yl-8-trifluoromethyl-6,7,8,9-tetrahydropyrimido[1,2-a]pyrimidin-4-one], the values for the IC50 in experiment [1] (setting [3]) and in experiment [2] (setting [4]) were 58 nM and > 10000 nM, respectively.
Take `CNc1ccc(C(=O)CN2c3nc(N4C[C@@H]5C[C@H]4CO5)cc(=O)n3CC[C@H]2C(F)(F)F)cn1` [Compound 5, (8S)-9-[2-(6-methylaminopyrid-3-yl)-2-oxoethyl]-2-(1S,4S)-2-oxa-5-azabicyclo[2.2.1]hept-5-yl-8-trifluoromethyl-6,7,8,9-tetrahydropyrimido[1,2-a]pyrimidin-4-one]: the IC50 in experiment [1] (setting [3]) stood at 95 nM; in experiment [2] (setting [4]) it was 8200 nM.
As to `CN(C)c1ccc(C(=O)CN2c3nc(N4C[C@@H]5C[C@H]4CO5)cc(=O)n3CC[C@H]2C(F)(F)F)cn1` [Compound 6, (8S)-9-[2-(6-dimethylaminopyrid-3-yl)-2-oxoethyl]-2-(1S,4S)-2-oxa-5-azabicyclo[2.2.1]hept-5-yl-8-trifluoromethyl-6,7,8,9-tetrahydropyrimido[1,2-a]pyrimidin-4-one], the concentration for half-maximal inhibition (IC50) in experiment [1] (setting [3]) is > 200 nM; in experiment [2] (setting [4]) it was > 10000 nM.
Consider `O=C(CN1c2nc(N3C[C@@H]4C[C@H]3CO4)cc(=O)n2CC[C@H]1C(F)(F)F)c1cccnc1` [Compound 7, (8S)-2-(1S,4S)-2-oxa-5-azabicyclo[2.2.1]hept-5-yl-9-(2-oxo-2-pyrid-3-ylethyl)-8-trifluoromethyl-6,7,8,9-tetrahydropyrimido[1,2-a]pyrimidin-4-one], for which the concentration for half-maximal inhibition (IC50) in experiment [1] (setting [3]) is 10 nM; in experiment [2] (setting [4]) it was ≥ 10000 nM.
As to `CN(C)c1ccc(C(=O)CN2c3nc(N4C[C@@H]5C[C@H]4CO5)cc(=O)n3C[C@@]2(C)C(F)(F)F)cn1` [Compound 8, 1-[2-(6-Dimethylaminopyrid-3-yl)-2-oxoethyl]-2-(S)-methyl-7-(1S,4S)-2-oxa-5-azabicyclo[2.2.1]hept-5-yl-2-trifluoromethyl-2,3-dihydro-1H-imidazo[1,2-a]pyrimidin-5-one], the IC50 in experiment [1] (setting [3]) is > 200 nM; in experiment [2] (setting [4]) it was > 10000 nM.
`CNc1ccc(C(=O)CN2c3nc(N4C[C@@H]5C[C@H]4CO5)cc(=O)n3C[C@@]2(C)C(F)(F)F)cn1` [Compound 9, 2-methyl-1-[2-(6-methylaminopyrid-3-yl)-2-oxoethyl]-7-(1S,4S)-2-oxa-5-azabicyclo[2.2.1]hept-5-yl-2-((S)-trifluoromethyl)-2,3-dihydro-1H-imidazo[1,2-a]pyrimidin-5-one]: the IC50 was > 200 nM in experiment [1] (setting [3]) and > 10000 nM in experiment [2] (setting [4]).
Regarding `COc1ccc(CCN2c3nc(N4C[C@@H]5C[C@H]4CO5)cc(=O)n3C[C@@]2(C)C(F)(F)F)cc1` [Compound 10, (8S)-1-[2-(4-Methoxyphenyl)ethyl]-2-methyl-7-(1S,4S)-2-oxa-5-azabicyclo[2.2.1]hept-5-yl-2-trifluoromethyl-2,3-dihydro-1H-imidazo[1,2-a]pyrimidin-5-one], the IC50 in experiment [1] amounted to 11 nM; in experiment [2] (setting [4]), 7200 nM.
As to `C[C@@]1(C(F)(F)F)Cn2c(nc(N3C[C@@H]4C[C@H]3CO4)cc2=O)N1CC(=O)c1ccc(N)nc1` [Compound 11, (S)-1-[2-(6-Aminopyrid-3-yl)-2-oxoethyl]-2-methyl-7-(1S,4S)-2-oxa-5-azabicyclo[2.2.1]hept-5-yl-2-trifluoromethyl-2,3-dihydro-1H-imidazo[1,2-a]pyrimidin-5-one], the IC50 is 40 nM in experiment [1] (setting [3]) and ≥ 10000 nM in experiment [2] (setting [4]).
In the case of `O=c1cc(N2C[C@@H]3C[C@H]2CO3)nc2n1CC[C@@H](C(F)(F)F)N2CCc1cccnc1` [Compound 12, (8S)-2-(1S,4S)-2-oxa-5-azabicyclo[2.2.1]hept-5-yl-9-(2-pyrid-3-ylethyl)-8-trifluoromethyl-6,7,8,9-tetrahydropyrimido[1,2-a]pyrimidin-4-one], the values for the IC50 in experiment [1] (setting [3]) and in experiment [2] (setting [4]) were 9 nM and 2900 nM, respectively.
For `C[C@@]1(C(F)(F)F)Cn2c(nc(N3C[C@@H]4C[C@H]3CO4)cc2=O)N1CCc1cccnc1` [Compound 13, 2-Methyl-7-(1S,4S)-2-oxa-5-azabicyclo[2.2.1]hept-5-yl-1-(2-pyrid-3-ylethyl)-2-((S)-trifluoromethyl)-2,3-dihydro-1H-imidazo[1,2-a]pyrimidin-5-one], the IC50 in experiment [1] is 21 nM; in experiment [2] (setting [4]), 5750 nM.
Take `O=C(CN1c2nc(N3C[C@@H]4C[C@H]3CO4)cc(=O)n2CC[C@H]1C(F)(F)F)c1ccc(NCCO)nc1` [Compound 14, (8S)-9-{2-[6-(2-hydroxyethylamino)pyrid-3-yl]-2-oxoethyl}-2-(1S,4S)-2-oxa-5-azabicyclo[2.2.1]hept-5-yl-8-trifluoromethyl-6,7,8,9-tetrahydropyrimido[1,2-a]pyrimidin-4-one]: the half-inhibitory concentration (IC50) is 70 nM in experiment [1] (setting [3]) and > 10000 nM in experiment [2] (setting [4]).
Consider `Cc1cncc(C(=O)CN2c3nc(N4C[C@@H]5C[C@H]4CO5)cc(=O)n3CC[C@H]2C(F)(F)F)c1` [Compound 15, (8S)-9-[2-(5-methylpyrid-3-yl)-2-oxoethyl]-2-(1S,4S)-2-oxa-5-azabicyclo[2.2.1]hept-5-yl-8-trifluoromethyl-6,7,8,9-tetrahydropyrimido[1,2-a]pyrimidin-4-one], for which the IC50 in experiment [1] (setting [3]) was 150 nM; in experiment [2] (setting [4]) it was > 7200 nM.
As for `O=c1cc(N2CC3CCC(C2)O3)nc2n1CC[C@@H](C(F)(F)F)N2C[C@@H](O)c1ccccc1` [Compound 80, (8S)-9-((S)-2-hydroxy-2-phenylethyl)-2-(8-oxa-3-azabicyclo[3.2.1]oct-3-yl)-8-trifluoromethyl-6,7,8,9-tetrahydropyrimido[1,2-a]pyrimidin-4-one], the IC50 in experiment [2] (setting [4]) came to 1600 nM.
The same measure, in the same setting: under `COc1ccc(CCN2c3nc(N4CC5CCC(C4)O5)cc(=O)n3CC[C@H]2C(F)(F)F)cc1` [Compound 81, (8S)-9-[2-(4-Methoxyphenyl)ethyl]-2-(8-oxa-3-azabicyclo[3.2.1]oct-3-yl)-8-trifluoromethyl-6,7,8,9-tetrahydropyrimido[1,2-a]pyrimidin-4-one] stands 2000 nM.
The same measure, in the same setting: under `O=C(CN1c2nc(N3CC4CCC(C3)O4)cc(=O)n2CC[C@H]1C(F)(F)F)c1cccnc1` [Compound 87, (8S)-2-(8-Oxa-3-azabicyclo[3.2.1]oct-3-yl)-9-(2-oxo-2-pyrid-3-ylethyl)-8-trifluoromethyl-6,7,8,9-tetrahydropyrimido[1,2-a]pyrimidin-4-one] stands ≥ 10000 nM.
As for `COc1ccc(CCN2c3nc(N4CCOCC4)cc(=O)n3C[C@@]2(C)C(F)(F)F)cc1` [Example 1 (p. 39, WO 2011/001 112), reference compound], the IC50 in experiment [2] (setting [5]) amounted to 15 nM.
Still for that read-out and setting: under `COc1ccc(CCN2c3nc(N4CCOCC4)cc(=O)n3CC[C@H]2C(F)(F)F)cc1` [Example 1 (p. 44, WO 2011/001 113), reference compound] stands 9 nM.
Consider `C[C@@]1(C(F)(F)F)Cn2c(nc(N3CCOCC3)cc2=O)N1C[C@@H](O)c1ccccc1` [Example 10 (p. 61, WO 2011/001 112), reference compound], for which, in experiment [2] (setting [5]), the IC50 turned out to be 17 nM.
